According to ChEMBL document CHEMBL1140267, “Synthesis and pharmacological evaluation of substituted 5-[4-[2-(6,7-dimethyl-1,2,3,4-tetrahydro-2-oxo-4-quinoxalinyl)ethoxy]phenyl]methylene]thiazolidine-2,4-dione derivatives as potent euglycemic and hypolipidemic agents” (Bioorg Med Chem Lett, 2005):

Legend:
Format in all cases: ADME, organism-based
Settings in all cases: in vivo
[1] = Percent decrease in plasma glucose level of wistar rat was determined at 3 mg/kg dosage of the compound; set-up: dose 3 mg/kg
[2] = Percent decrease in triglyceride level of wistar rat was determined at 30 mg/kg dosage of the compound; set-up: dose 30 mg/kg
[3] = Percent decrease in triglyceride level of wistar rat was determined at 3 mg/kg dosage of the compound; set-up: dose 3 mg/kg
[4] = Percent decrease in triglyceride level of wistar rat was determined at 100 mg/kg dosage of the compound; set-up: dose 100 mg/kg
[5] = Percent decrease in plasma glucose level of wistar rat was determined at 10 mg/kg dosage of the compound; set-up: dose 10 mg/kg
[6] = Percent decrease in plasma glucose level of wistar rat was determined at 30 mg/kg dosage of the compound; set-up: dose 30 mg/kg
[7] = Percent decrease in triglyceride level of wistar rat was determined at 10 mg/kg dosage of the compound; set-up: dose 10 mg/kg
[8] = Percent decrease in plasma glucose level of wistar rat was determined at 100 mg/kg dosage of the compound; set-up: dose 100 mg/kg

Compound | Decrease [1] | Decrease [2] | Decrease [3] | Decrease [4] | Decrease [5] | Decrease [6] | Decrease [7] | Decrease [8]
Cc1cc2c(cc1C)N(CCOc1ccc(/C=C3/SC(=O)NC3=O)cc1)C(c1ccccc1)C(=O)N2 (stereo unspecified) | 25.24% | 22.46% | 16.87% | 29.73% | 21.69% | 40.26% | 20.36% | 53.96%
Cc1cc2c(cc1C)N(CCOc1ccc(/C=C3/SC(=O)NC3=O)cc1)C(C)C(=O)N2 (stereo unspecified) | 43.16% | 40% | 23.46% | 43.42% | 42.17% | 58.48% | 32.62% | 69.72%
Cc1cc2c(cc1C)N(CCOc1ccc(/C=C3/SC(=O)NC3=O)cc1)CC(=O)N2 | 50.12% | 49.12% | 49.63% | 54.95% | 52.63% | 69.47% | 44.2% | 81.25%
Cc1cc2c(cc1C)N(CCCOc1ccc(/C=C3/SC(=O)NC3=O)cc1)C(C)C(=O)N2 (stereo unspecified) | 35.73% | 28.82% | 21.73% | 37.46% | 39.21% | 49.62% | 29.69% | 64.26%
Cc1cc2c(cc1C)N(CCCOc1ccc(/C=C3/SC(=O)NC3=O)cc1)CC(=O)N2 | 47.65% | 47.35% | 30.36% | 50.1% | 49.11% | 64.76% | 38.13% | 72.33%
Cc1cc2c(cc1C)N(CCCOc1ccc(/C=C3/SC(=O)NC3=O)cc1)C(c1ccccc1)C(=O)N2 (stereo unspecified) | 18.68% | 14.73% | 10.46% | 22.89% | 19.25% | 26.42% | 10.66% | 38.96%
CN(CCOc1ccc(CC2SC(=O)NC2=O)cc1)c1ccccn1 (stereo unspecified) [ROSIGLITAZONE] | 41.6% | 41% | 47% | 46% | 47.25% | 65% | 35.25% | 75.5%
